For this assay, the target named is Baculoviral IAP repeat-containing protein 2 (Homo sapiens, UniProt Q13490). Nature of the assay: Binding Assays (DELFIA): BIR3 domains (10 nM) were incubated with SMAC peptide (10 nM) in assay buffer (50 mM Tris, 120 mM NaCl, 0.1% BSA, 1 mM DTT, 0.05% Triton X100) for one hour at room temperature in the presence of inhibitory compounds. The assay mixture was transferred to a streptavidin coated plate and incubated for one hour at room temperature to allow binding of the biotinylated peptide and associated BIR3 domains to the plate. After several washing steps Eu labeled anti-GST antibody (e.g. Perkin Elmer DELFIA Eu-N1-antiGST AD0250) was added to detect BIR3 domain-SMAC peptide interactions according to Perkin Elmer's instructions. Briefly, the antibody was added (dilution 1:5000 in Perkin Elmer DELFIA Assay Buffer 2013-01) and incubated for one hour. After 3 washing steps using Delfia Washing Buffer (Perkin Elmer DELFIA Wash 2013-05), Enhancement Solution (Perkin Elmer Enhancement Asolution 2013-02) was added and incubation continued for 10 minutes.

Structures are written as SMILES.

As a reminder, the IC50 is the midpoint of a concentration-inhibition curve.

In the case of `CN[C@@H](C)C(=O)Nc1ccc(-c2c(-c3cccnc3OC)nc3ccccn23)c(C#Cc2ccc3c(C)nccc3c2)n1`, the IC50 result is “in the range around 2 nM”.

For the origin of these results see ChEMBL document CHEMBL3886996, “6-alkynyl-pyridine derivatives” (2016).
